Results from patent US10844077B2, “Thiazolyl-containing compounds for treating proliferative diseases” (Dana-Farber Cancer Institute, Inc., priority 2014, dated 2020).
Several values for one entry are separate records, joined by “and”; a condition that tells them apart may be missing. Equal entries are not always repeated.

How the values were obtained:
Test in all cases: KINATIV assay
Format in all cases: cell-based
Conditions in all cases: 1 μM, 90 minutes, BCWM.1 cells
TAO1, TAO3 = tested on: TAO1, TAO3
Method: (§1) The cells were harvested and lysed. The lysates were directly labeled with an ATP-biotin probe. Bound kinases were identified and quantitated by ACTIVX as described in Patricelli et al., Biochemistry, 2007, 46(2): 350-358. The compounds were tested in duplicates against duplicate or quadruplicate control samples.

AKT1 = AKT1 (Homo sapiens (Human), UniProt P31749)
Method: as §1

MAP2K7 = MAP2K7 (Homo sapiens (Human), UniProt O14733)
Method: as §1

PITSLRE = tested on: PITSLRE
Method: as §1

STK33 = STK33 (Homo sapiens (Human), UniProt Q9BYT3)
Method: as §1

CDK4 = CDK4 (Homo sapiens (Human), UniProt P11802)
Chain of CDK4 (P11802 2-303): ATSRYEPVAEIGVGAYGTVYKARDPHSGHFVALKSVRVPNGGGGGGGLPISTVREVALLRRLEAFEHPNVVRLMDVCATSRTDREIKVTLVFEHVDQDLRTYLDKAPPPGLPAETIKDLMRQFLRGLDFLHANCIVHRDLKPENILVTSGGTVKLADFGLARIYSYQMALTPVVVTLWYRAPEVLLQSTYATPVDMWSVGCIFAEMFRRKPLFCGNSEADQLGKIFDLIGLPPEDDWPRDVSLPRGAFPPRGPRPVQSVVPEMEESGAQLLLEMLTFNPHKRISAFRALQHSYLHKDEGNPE
Method: as §1

MARK4 = MARK4 (Homo sapiens (Human), UniProt Q96L34)
Method: as §1

[1] = tested on: CaMK2a, CaMK2b, CaMK2d, CaMK2g
Method: as §1

BTK = BTK (Homo sapiens (Human), UniProt Q06187)
Method: as §1

MSK2 domain1 = MSK2 domain1 (Homo sapiens (Human), UniProt O75676)
Method: as §1

HPK1 = HPK1 (Homo sapiens (Human), UniProt Q92918)
Method: as §1

MSK1, MSK2 domain1 = tested on: MSK1, MSK2 domain1
Method: as §1

JAK1 = JAK1 (Homo sapiens (Human), UniProt P23458)
Method: as §1

MELK = MELK (Homo sapiens (Human), UniProt Q14680)
Method: as §1

PIK3C2B = PIK3C2B (Homo sapiens (Human), UniProt O00750)
Method: as §1

CDK9 = CDK9 (Homo sapiens (Human), UniProt P50750)
Chain of CDK9 (P50750 whole entry): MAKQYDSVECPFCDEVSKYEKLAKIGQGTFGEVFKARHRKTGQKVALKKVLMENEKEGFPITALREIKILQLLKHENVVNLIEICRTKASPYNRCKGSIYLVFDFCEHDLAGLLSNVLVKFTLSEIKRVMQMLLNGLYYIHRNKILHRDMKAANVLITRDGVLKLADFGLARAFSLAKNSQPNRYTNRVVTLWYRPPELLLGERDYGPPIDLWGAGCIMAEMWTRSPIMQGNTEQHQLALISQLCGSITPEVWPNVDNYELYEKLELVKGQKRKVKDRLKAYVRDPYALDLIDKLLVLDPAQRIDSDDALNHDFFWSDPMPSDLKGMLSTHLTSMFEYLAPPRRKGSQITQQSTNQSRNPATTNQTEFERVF
Chain of CDK9 (O60563 whole entry partner): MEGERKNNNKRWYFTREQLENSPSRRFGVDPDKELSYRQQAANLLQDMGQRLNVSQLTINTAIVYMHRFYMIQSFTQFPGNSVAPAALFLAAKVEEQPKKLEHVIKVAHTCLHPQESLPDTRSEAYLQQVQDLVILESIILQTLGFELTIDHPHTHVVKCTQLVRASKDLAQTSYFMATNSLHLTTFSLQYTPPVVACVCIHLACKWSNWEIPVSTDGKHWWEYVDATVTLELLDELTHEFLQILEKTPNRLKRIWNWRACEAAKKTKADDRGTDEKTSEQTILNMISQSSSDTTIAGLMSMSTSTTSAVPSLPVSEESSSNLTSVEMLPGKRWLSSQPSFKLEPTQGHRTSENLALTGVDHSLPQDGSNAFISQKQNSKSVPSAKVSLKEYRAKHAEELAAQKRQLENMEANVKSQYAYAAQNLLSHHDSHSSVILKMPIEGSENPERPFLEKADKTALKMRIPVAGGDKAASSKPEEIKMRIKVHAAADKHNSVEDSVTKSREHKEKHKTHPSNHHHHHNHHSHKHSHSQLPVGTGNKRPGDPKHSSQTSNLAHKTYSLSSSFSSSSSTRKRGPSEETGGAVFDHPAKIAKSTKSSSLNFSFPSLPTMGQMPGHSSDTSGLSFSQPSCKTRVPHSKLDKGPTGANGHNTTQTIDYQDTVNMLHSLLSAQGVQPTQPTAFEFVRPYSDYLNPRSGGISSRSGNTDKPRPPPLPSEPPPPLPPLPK
Method: as §1

PHKg2 = PHKg2 (Homo sapiens (Human), UniProt P15735)
Chain of PHKg2 (P15735 whole entry): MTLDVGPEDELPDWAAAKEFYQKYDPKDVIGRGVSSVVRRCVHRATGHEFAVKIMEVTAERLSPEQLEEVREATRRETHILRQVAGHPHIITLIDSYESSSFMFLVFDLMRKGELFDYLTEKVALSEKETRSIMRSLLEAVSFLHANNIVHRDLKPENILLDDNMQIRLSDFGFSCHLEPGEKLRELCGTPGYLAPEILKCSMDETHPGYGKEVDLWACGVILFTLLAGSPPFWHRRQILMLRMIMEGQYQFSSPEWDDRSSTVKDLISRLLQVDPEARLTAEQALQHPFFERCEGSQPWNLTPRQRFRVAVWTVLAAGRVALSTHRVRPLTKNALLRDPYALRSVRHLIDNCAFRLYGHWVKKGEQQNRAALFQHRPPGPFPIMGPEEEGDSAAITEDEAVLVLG
Method: as §1

MST1, MST2 = tested on: MST1, MST2
Method: as §1

LYN = LYN (Homo sapiens (Human), UniProt P07948)
Method: as §1

RSKL1 = RSKL1 (Homo sapiens (Human), UniProt Q96S38)
Method: as §1

FRAP = FRAP (Homo sapiens (Human), UniProt P42345)
Method: as §1

YSK1 = YSK1 (Homo sapiens (Human), UniProt O00506)
Chain of YSK1 (O00506 whole entry): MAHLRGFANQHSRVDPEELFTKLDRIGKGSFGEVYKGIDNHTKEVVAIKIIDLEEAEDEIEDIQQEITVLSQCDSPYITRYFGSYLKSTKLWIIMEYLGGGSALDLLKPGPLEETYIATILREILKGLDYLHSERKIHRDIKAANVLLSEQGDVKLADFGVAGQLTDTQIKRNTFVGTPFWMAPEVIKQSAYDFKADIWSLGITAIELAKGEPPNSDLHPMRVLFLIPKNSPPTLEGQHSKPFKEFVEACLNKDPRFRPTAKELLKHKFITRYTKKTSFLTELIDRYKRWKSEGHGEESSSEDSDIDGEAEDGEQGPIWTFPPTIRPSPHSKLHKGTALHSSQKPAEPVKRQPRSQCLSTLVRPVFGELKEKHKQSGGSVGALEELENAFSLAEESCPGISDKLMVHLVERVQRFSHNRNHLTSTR
Method: as §1

TEC = TEC (Homo sapiens (Human), UniProt P42680)
Method: as §1

CLK3 = CLK3 (Homo sapiens (Human), UniProt P49761)
Chain of CLK3 (P49761 whole entry): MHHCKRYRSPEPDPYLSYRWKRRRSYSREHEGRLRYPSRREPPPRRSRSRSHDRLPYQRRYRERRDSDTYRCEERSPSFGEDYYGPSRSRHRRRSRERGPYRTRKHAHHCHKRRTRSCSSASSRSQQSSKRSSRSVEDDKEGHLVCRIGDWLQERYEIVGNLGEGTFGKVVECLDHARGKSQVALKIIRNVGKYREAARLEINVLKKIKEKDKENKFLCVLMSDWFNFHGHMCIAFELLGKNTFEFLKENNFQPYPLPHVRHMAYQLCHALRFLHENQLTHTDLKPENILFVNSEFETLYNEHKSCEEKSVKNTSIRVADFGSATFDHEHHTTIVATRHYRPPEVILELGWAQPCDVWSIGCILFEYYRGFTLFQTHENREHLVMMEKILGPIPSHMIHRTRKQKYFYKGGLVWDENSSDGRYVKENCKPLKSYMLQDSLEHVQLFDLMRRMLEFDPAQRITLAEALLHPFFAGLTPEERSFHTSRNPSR
Method: as §1

TBK1 = TBK1 (Homo sapiens (Human), UniProt Q9UHD2)
Method: as §1

IKKa = IKKa (Homo sapiens (Human), UniProt O15111)
Chain of IKKa (O15111 whole entry): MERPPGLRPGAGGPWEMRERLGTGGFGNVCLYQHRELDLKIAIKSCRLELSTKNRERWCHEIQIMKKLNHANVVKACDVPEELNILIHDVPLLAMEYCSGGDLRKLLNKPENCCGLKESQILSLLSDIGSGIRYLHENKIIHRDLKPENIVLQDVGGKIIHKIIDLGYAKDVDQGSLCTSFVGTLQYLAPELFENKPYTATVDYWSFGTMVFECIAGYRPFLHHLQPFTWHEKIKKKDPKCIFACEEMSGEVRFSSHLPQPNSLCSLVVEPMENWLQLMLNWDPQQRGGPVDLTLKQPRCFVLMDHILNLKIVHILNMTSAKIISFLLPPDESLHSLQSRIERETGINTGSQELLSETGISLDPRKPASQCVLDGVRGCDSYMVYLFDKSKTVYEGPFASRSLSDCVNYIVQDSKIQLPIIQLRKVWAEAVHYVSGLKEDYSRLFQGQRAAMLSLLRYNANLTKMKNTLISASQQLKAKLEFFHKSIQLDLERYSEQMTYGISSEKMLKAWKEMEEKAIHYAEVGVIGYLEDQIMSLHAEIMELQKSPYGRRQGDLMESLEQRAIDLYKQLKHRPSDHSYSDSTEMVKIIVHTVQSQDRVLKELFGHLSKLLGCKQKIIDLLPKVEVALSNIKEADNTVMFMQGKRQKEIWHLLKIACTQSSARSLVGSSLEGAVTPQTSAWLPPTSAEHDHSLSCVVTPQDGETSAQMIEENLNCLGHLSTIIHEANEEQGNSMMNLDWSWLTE
Method: as §1

MST1 = MST1 (Homo sapiens (Human), UniProt Q13043)
Method: as §1

CK1g2 = CK1g2 (Homo sapiens (Human), UniProt P78368)
Method: as §1

LRRK2 = LRRK2 (Homo sapiens (Human), UniProt Q5S007)
Method: as §1

NEK7 = NEK7 (Homo sapiens (Human), UniProt Q8TDX7)
Method: as §1

ULK3 = ULK3 (Homo sapiens (Human), UniProt Q6PHR2)
Chain of ULK3 (Q6PHR2 whole entry): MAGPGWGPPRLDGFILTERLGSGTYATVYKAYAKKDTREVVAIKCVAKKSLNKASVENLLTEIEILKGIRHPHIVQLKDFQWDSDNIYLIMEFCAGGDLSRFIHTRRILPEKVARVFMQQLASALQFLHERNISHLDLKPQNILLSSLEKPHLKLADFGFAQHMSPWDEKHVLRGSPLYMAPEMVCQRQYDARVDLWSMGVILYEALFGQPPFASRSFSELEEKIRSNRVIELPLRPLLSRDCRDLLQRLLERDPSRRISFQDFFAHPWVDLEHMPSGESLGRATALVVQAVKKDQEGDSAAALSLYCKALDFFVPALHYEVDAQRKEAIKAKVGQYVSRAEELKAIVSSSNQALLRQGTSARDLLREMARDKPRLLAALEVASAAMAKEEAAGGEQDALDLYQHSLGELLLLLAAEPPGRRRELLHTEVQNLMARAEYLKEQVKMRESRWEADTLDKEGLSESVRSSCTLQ
Method: as §1

PAN3 = PAN3 (Homo sapiens (Human), UniProt Q58A45)
Method: as §1

PI4KA, PI4KAP2 = tested on: PI4KA, PI4KAP2
Method: as §1

CK1a = CK1a (Homo sapiens (Human), UniProt P48729)
Method: as §1

CDK11, CDK8 = tested on: CDK11, CDK8
Method: as §1

EphB2 = EphB2 (Homo sapiens (Human), UniProt P29323)
Chain of EphB2 (P29323 19-1055): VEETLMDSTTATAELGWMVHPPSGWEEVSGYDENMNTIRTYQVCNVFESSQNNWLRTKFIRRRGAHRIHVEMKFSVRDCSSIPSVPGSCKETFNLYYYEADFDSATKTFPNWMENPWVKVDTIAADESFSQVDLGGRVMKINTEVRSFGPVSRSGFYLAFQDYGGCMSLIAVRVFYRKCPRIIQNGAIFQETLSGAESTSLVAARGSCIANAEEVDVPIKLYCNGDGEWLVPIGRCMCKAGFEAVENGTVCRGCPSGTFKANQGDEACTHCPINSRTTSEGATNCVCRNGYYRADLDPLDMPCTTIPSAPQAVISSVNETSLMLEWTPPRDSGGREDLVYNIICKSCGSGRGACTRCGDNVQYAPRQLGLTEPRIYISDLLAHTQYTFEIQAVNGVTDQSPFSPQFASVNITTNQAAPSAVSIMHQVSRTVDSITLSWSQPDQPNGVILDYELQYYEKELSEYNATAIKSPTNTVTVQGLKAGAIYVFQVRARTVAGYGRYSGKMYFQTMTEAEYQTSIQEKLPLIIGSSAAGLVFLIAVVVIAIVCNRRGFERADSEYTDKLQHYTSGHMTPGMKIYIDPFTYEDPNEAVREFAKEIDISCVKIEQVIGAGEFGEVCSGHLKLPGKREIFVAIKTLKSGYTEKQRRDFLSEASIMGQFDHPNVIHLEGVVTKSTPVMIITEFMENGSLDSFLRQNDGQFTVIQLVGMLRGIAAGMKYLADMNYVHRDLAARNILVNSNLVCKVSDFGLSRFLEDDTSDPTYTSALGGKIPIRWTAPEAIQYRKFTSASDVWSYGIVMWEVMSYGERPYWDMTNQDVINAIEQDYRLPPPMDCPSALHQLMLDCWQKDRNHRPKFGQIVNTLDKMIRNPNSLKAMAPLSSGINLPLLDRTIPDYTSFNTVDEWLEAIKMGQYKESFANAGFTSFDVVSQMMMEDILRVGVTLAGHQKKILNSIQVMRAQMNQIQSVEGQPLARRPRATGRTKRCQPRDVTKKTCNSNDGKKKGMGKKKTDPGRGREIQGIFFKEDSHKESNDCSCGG
Method: as §1

RSK4 domain1 = RSK4 domain1 (Homo sapiens (Human), UniProt Q9UK32)
Method: as §1

JNK1, JNK2, JNK3 = tested on: JNK1, JNK2, JNK3
Method: as §1

ZC2/TNIK = ZC2/TNIK (Homo sapiens (Human), UniProt Q9UKE5)
Method: as §1

CaMK2g = CaMK2g (Homo sapiens (Human), UniProt Q13555)
Method: as §1

LATS2 = LATS2 (Homo sapiens (Human), UniProt Q9NRM7)
Method: as §1

C=CC(=O)N1CCCCC(Nc2nccc(Nc3ncc(C(=O)Nc4c(C)cccc4C)s3)n2)C1 (stereo not shown) [Example I-7]
% change of MS signal compared to control sample (TAO1, TAO3): −1.8% | % change of MS signal compared to control sample (AKT1): −16.4% | % change of MS signal compared to control sample (MAP2K7): 11.2% | % change of MS signal compared to control sample (PITSLRE): −9.3% | % change of MS signal compared to control sample (STK33): 21.1% | % change of MS signal compared to control sample (CDK4): 16.7% | % change of MS signal compared to control sample (MARK4): 4.9% and 14.1% | % change of MS signal compared to control sample [1]: 7.4% | % change of MS signal compared to control sample (BTK): 98.9% and >90% | % change of MS signal compared to control sample (MSK2 domain1): −45.3% | % change of MS signal compared to control sample (HPK1): 23.4% and 19.8% | % change of MS signal compared to control sample (MSK1, MSK2 domain1): −40.4% | % change of MS signal compared to control sample (JAK1): 7.5% | % change of MS signal compared to control sample (MELK): −11.0% | % change of MS signal compared to control sample (PIK3C2B): 39.9% | % change of MS signal compared to control sample (CDK9): −37.0% | % change of MS signal compared to control sample (PHKg2): 0.6% | % change of MS signal compared to control sample (MST1, MST2): 9.5% | % change of MS signal compared to control sample (LYN): >97% and >90% | % change of MS signal compared to control sample (RSKL1): 29.7% | % change of MS signal compared to control sample (FRAP): −3.5% | % change of MS signal compared to control sample (YSK1): −19.9% | % change of MS signal compared to control sample (TEC): 85.1% and 58.6% | % change of MS signal compared to control sample (CLK3): −15.7% | % change of MS signal compared to control sample (TBK1): −39.7% | % change of MS signal compared to control sample (IKKa): −3.5% | % change of MS signal compared to control sample (MST1): 3.0% | % change of MS signal compared to control sample (CK1g2): −3.7% | % change of MS signal compared to control sample (LRRK2): −9.6% | % change of MS signal compared to control sample (NEK7): 10.0% | % change of MS signal compared to control sample (ULK3): 15.5% and 18.4% | % change of MS signal compared to control sample (PAN3): −0.2% | % change of MS signal compared to control sample (PI4KA, PI4KAP2): −17.4% | % change of MS signal compared to control sample (CK1a): −0.7% | % change of MS signal compared to control sample (CDK11, CDK8): −3.5% | % change of MS signal compared to control sample (EphB2): >90% | % change of MS signal compared to control sample (RSK4 domain1): −13.5% | % change of MS signal compared to control sample (JNK1, JNK2, JNK3): −4.8% | % change of MS signal compared to control sample (ZC2/TNIK): −1.5% | % change of MS signal compared to control sample (CaMK2g): −12.8% | % change of MS signal compared to control sample (LATS2): −6.6%

C=CC(=O)N1CC[C@@H](Nc2nccc(Nc3ncc(C(=O)Nc4c(C)cccc4C)s3)n2)C1 [Example I-4]
% change of MS signal compared to control sample (TAO1, TAO3): 7.6% | % change of MS signal compared to control sample (AKT1): −11.0% | % change of MS signal compared to control sample (MAP2K7): −10.1% | % change of MS signal compared to control sample (PITSLRE): −13.6% | % change of MS signal compared to control sample (STK33): −23.0% | % change of MS signal compared to control sample (CDK4): 6.8% | % change of MS signal compared to control sample [1]: 10.0% | % change of MS signal compared to control sample (BTK): 97.0% and >90% | % change of MS signal compared to control sample (MSK2 domain1): −9.6% | % change of MS signal compared to control sample (HPK1): 26.6% | % change of MS signal compared to control sample (MSK1, MSK2 domain1): −28.9% | % change of MS signal compared to control sample (JAK1): −5.7% | % change of MS signal compared to control sample (MELK): −11.7% | % change of MS signal compared to control sample (PIK3C2B): −5.8% | % change of MS signal compared to control sample (CDK9): −41.9% | % change of MS signal compared to control sample (PHKg2): −15.6% | % change of MS signal compared to control sample (MST1, MST2): 3.8% | % change of MS signal compared to control sample (LYN): >97% and >90% | % change of MS signal compared to control sample (RSKL1): 10.7% | % change of MS signal compared to control sample (FRAP): 4.9% | % change of MS signal compared to control sample (YSK1): −58.5% | % change of MS signal compared to control sample (TEC): 68.7% and 73.7% | % change of MS signal compared to control sample (CLK3): −1.3% | % change of MS signal compared to control sample (TBK1): −34.8% | % change of MS signal compared to control sample (IKKa): 6.4% | % change of MS signal compared to control sample (MST1): 7.0% | % change of MS signal compared to control sample (CK1g2): −4.5% | % change of MS signal compared to control sample (LRRK2): −5.7% | % change of MS signal compared to control sample (NEK7): −7.7% | % change of MS signal compared to control sample (ULK3): 22.5% and 21.9% | % change of MS signal compared to control sample (PAN3): −29.0% | % change of MS signal compared to control sample (PI4KA, PI4KAP2): −37.7% | % change of MS signal compared to control sample (CK1a): −41.3% | % change of MS signal compared to control sample (CDK11, CDK8): −36.1% | % change of MS signal compared to control sample (EphB2): >90% | % change of MS signal compared to control sample (RSK4 domain1): 3.5% | % change of MS signal compared to control sample (JNK1, JNK2, JNK3): 6.3% | % change of MS signal compared to control sample (ZC2/TNIK): 48.8% | % change of MS signal compared to control sample (CaMK2g): −19.8% | % change of MS signal compared to control sample (LATS2): −9.2%

C=CC(=O)N1CCC(CNc2nccc(Nc3ncc(C(=O)Nc4c(C)cccc4C)s3)n2)C1 (racemic) [Example I-8]
% change of MS signal compared to control sample (TAO1, TAO3): −8.7% | % change of MS signal compared to control sample (AKT1): −19.5% | % change of MS signal compared to control sample (MAP2K7): −7.5% | % change of MS signal compared to control sample (PITSLRE): −16.1% | % change of MS signal compared to control sample (STK33): 29.8% | % change of MS signal compared to control sample (CDK4): 6.1% | % change of MS signal compared to control sample (MARK4): −0.4% and 1.6% | % change of MS signal compared to control sample [1]: 10.4% | % change of MS signal compared to control sample (BTK): 98.0% and >90% | % change of MS signal compared to control sample (MSK2 domain1): −47.7% | % change of MS signal compared to control sample (HPK1): 32.8% and 24.6% | % change of MS signal compared to control sample (MSK1, MSK2 domain1): −29.7% | % change of MS signal compared to control sample (JAK1): −1.9% | % change of MS signal compared to control sample (MELK): −10.0% | % change of MS signal compared to control sample (PIK3C2B): 12.5% | % change of MS signal compared to control sample (CDK9): −5.2% | % change of MS signal compared to control sample (PHKg2): 6.4% | % change of MS signal compared to control sample (MST1, MST2): 8.7% | % change of MS signal compared to control sample (LYN): >97% and >90% | % change of MS signal compared to control sample (RSKL1): 35.0% | % change of MS signal compared to control sample (FRAP): −5.2% | % change of MS signal compared to control sample (YSK1): −29.2% | % change of MS signal compared to control sample (TEC): 79.5% and 71.1% | % change of MS signal compared to control sample (CLK3): −14.9% | % change of MS signal compared to control sample (TBK1): −2.9% | % change of MS signal compared to control sample (IKKa): −4.2% | % change of MS signal compared to control sample (MST1): 2.4% | % change of MS signal compared to control sample (CK1g2): −6.1% | % change of MS signal compared to control sample (LRRK2): −12.2% | % change of MS signal compared to control sample (NEK7): −1.0% | % change of MS signal compared to control sample (PAN3): 18.3% | % change of MS signal compared to control sample (PI4KA, PI4KAP2): −9.9% | % change of MS signal compared to control sample (CK1a): 14.9% | % change of MS signal compared to control sample (CDK11, CDK8): 19.6% | % change of MS signal compared to control sample (EphB2): >90% | % change of MS signal compared to control sample (RSK4 domain1): −8.2% | % change of MS signal compared to control sample (JNK1, JNK2, JNK3): −9.5% | % change of MS signal compared to control sample (ZC2/TNIK): 19.0% | % change of MS signal compared to control sample (CaMK2g): −9.4% | % change of MS signal compared to control sample (LATS2): 10.6%
